Measurements as given in patent US20210009557A1, “ACYCLIC CXCR4 INHIBITORS AND USES THEREOF” (X4 Pharmaceuticals, Inc., priority 2017, published 2021).

Experiments:
[1] = biological target: T1, CXCR-4 transfected U87 cell line (U87.CXCR4) (Homo sapiens, UniProt P61073); experiment: Intracellular CXCL-12-induced calcium mobilization assay (FLIPR); format: cell-based; settings: U87.CXCR4 cells; CXCL-12 25-50 ng/mL; compounds added 15 minutes before; read-out: IC50 CXCL-12 Ca2+ flux U87.CXCR4+
T1 construct: expressed in transfected cells; host or cells: U87 cell line (U87.CXCR4)
Description: Intracellular calcium mobilization induced by chemokines orchemokine-derived peptides were evaluated using a calcium responsive fluorescent probe and a FLIPR system. The CXCR-4 transfected U87 cell line (U87.CXCR4) cells were seeded in gelatine-coated black-wall 96-well plates at 20,000 cells per well and incubated for 12 hours. Cells were then loaded with the fluorescent calcium probe Fluo-2 acetoxymethyl at 4 μM final concentration in assay buffer (Hanks' balanced salt solution with 20 mM HEPES buffer and 0.2% bovine serum albumin, pH 7.4) for 45 min at 37′C. The intracellular calcium mobilization induced by the CXCL-12 (25-50 ng/mL) was then measured at 37° C. by monitoring the fluorescence as a function of time in all the wells simultaneously using a fluorometric imaging plate reader (FLIPR Tetra, Molecular Devices).

[2] = biological target: T2, Jurkat cells expressing CXCR4 (Homo sapiens, UniProt P61073); experiment: Chemokine (CXCL12-AF647) binding inhibition assay; settings: CXCL12-AF647 25 ng/mL, read-out: IC50 CXCL-12 binding Jurkat
T2 construct: Jurkat cells expressing CXCR4; endogenous in cells; host or cells: Jurkat cells
Description: Jurkat cells expressing CXCR4 were washed once with assay buffer (Hanks' balanced salt solution with 20 mM HEPES buffer and 0.2% bovine serum albumin, pH 7.4) and then incubated for 15 min at room temperature with the test compounds diluted in assay buffer at dose-dependent concentrations. Subsequently, CXCL12-AF647 (25 ng/mL) was added to the compound-incubated cells. The cells were incubated for 30 min at room temperature. Thereafter, the cells were washed twice in assay buffer, fixed in 1% paraformaldehyde in PBS, and analyzed on the FL4 channel of a FACSCalibur flow cytometer equipped with a 635-nm red diode laser (Becton Dickinson, San Jose, Calif., USA).
The percentages of inhibition of CXCL12-AF647 binding were calculated according to the formula: [1−((MFI−MFINC)/(MFIPC−MFINC))]×100 where MFI is the mean fluorescence intensity of the cells incubated with CXCL12-AF647 in the presence of the inhibitor, MFINC is the mean fluorescence intensity measured in the negative control (i.e., autofluorescence of unlabeled cells), and MFIPC is the mean fluorescence intensity of the positive control (i.e., cells exposed to CXCL12-AF647 alone).

in vitro = settings: human, Caco-2, pH 7.4
Description: The goal of this assay was to evaluate the intestinal absorption potential of drug candidates using Caco-2 cell lines.
Experimental Procedure • 1. Pre-warm Pre-warm HBSS Buffer in 37° C. water bath • 2. Sonicate Take compounds from −20° C., sonicate for a few minutes (no less than 1 minute) • 3. Solution preparation
For A-to-B Direction: • HBSS buffer with 0.3% DMSO and 5 μM LY: add 150 μL DMSO and 50 μL LY (5 mM) into 50 ml HBSS buffer (pH 7.4). • HBSS buffer with 0.1% DMSO and 5 μM LY: add 50 μL DMSO and 50 μL LY (5 mM) into 50 mL HBSS buffer (pH 7.4).
For B-to-A Direction: • HBSS buffer with 0.3% DMSO: add 150 μL DMSO into 50 ml HBSS buffer (pH 7.4). HBSS buffer with 0.1% DMSO: add 50 μL DMSO into 50 ml HBSS buffer (pH 7.4).
For A-to-B Direction: • Prepare HBSS buffer with 0.4% DMSO: add 200 μL DMSO into 50 ml HBSS buffer (pH 7.4).
For B-to-A Direction: • Prepare HBSS buffer with 0.4% DMSO and 5 μM LY: add 200 μL DMSO and 50 μL LY (5 mM) into 50 ml HBSS buffer (pH 7.4).
• 4. Measure TEER Take cell culture plate out of incubator, wash the cell monolayers with HBSS buffer, and then measure TEER values at Rm temperature. • 5. Centrifuge Centrifuge the compound solution (from step 3) at 4000 rpm for 5 min before loading to donor chambers. • 6. Dosing Add solution based on the volumes listed in the following table (make sure to take extra 100 μL of donor sample for T0 as Backup).
• 7. Apical LYTO samples To determine LY concentration in the apical chamber, take 100 μL sample from apical chambers into an opaque plate for LYTO. • 8. Pre-warm Pre-warm apical and basolateral plates at 37° C. for about 5 min, then begin transport by placing the apical plate onto basolateral plate. • 9. Incubation Keep the plates in incubator at 37° C. for 90 min. • 10.
• Prepare 1× solution: • 3 μL (20×)+57 μL of 0.4% DMSO HBSS+60 μL ACN with IS (Osalmid or Imipramine)—120 μL (1×) • 11. Transport termination Separate the apical plate from the basolateral plate after 90-min incubation. • 12. Measure LY Take 100 μL samples from basolateral plate to an opaque plate as LYT90. • 13. Measure LY concentrations for LYTO and LYT90 by Fluorometer (at excitation of 485 nm/emission of 535 nm). • 14.
Drug permeability: Papp=(VA/(Area×time))×([drug]accepter/(([drug]initial, donor)×Dilution Factor) • Where VA is the volume in the acceptor well, area is the surface area of the membrane and time is the total transport time in seconds.
For Millicell-24 Cell Culture Plates: surface area of the membrane=0.7 cm^2, VA=0.8 mL (A-to-B) or 0.4 mL (B-to-A)

T1 sequence (P61073 whole entry): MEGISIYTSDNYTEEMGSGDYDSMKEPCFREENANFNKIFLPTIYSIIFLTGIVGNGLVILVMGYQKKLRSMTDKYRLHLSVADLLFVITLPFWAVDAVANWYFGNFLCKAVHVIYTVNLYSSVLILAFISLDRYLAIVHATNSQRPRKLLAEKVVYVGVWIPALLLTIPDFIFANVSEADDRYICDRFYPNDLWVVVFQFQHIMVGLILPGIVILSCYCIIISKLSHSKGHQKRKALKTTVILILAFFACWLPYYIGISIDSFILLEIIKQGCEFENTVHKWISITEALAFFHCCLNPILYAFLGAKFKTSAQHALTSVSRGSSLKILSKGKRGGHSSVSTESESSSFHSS
T2 sequence (P61073 whole entry): as above

Row | SMILES | IC50 [1] [nM] | IC50 [2] [nM] | Papp A→B at 90 min, 10 μM (in vitro) [×10⁻⁶ cm/s] | Papp B→A at 90 min, 10 μM (in vitro) [×10⁻⁶ cm/s] | efflux ratio at 90 min, 10 μM (in vitro)
1 | Cc1cccnc1CN(CCc1cnc[nH]1)C(C)c1ccccn1 (stereo not shown) [Compound I-8] | ≥ 1000 | 0.01 to 100 | < 5 | > 10 | 10 to 30
2 | Cc1cccnc1CN(CCc1cnc[nH]1)Cc1ncccc1Cl [Compound I-10] | 100 to 1000 | 0.01 to 100 | 5 to 10 | > 10 | 0.1 to 10
3 | Cc1cccnc1CN(CCc1c[nH]cn1)Cc1nc2cc(F)ccc2n1C [Compound I-42] | ≥ 1000 | 0.01 to 100 | < 5 | > 10 | > 30
4 | Cc1cccnc1CN(CCc1ccccn1)Cc1ncccc1Cl [Compound I-5] | 100 to 1000 | 0.01 to 100 | > 10 | > 10 | 0.1 to 10
5 | Cc1cccnc1CN(CCc1c[nH]cn1)Cc1nc2ccc(F)cc2n1C [Compound I-41] | 100 to 1000 | 0.01 to 100 | < 5 | > 10 | > 30
6 | Cc1cccnc1CN(CCc1cnc[nH]1)Cc1nccc2ccccc12 [Compound I-36] | 0.01 to 100 | 0.01 to 100 | < 5 | > 10 | 10 to 30
7 | CC(c1ccccn1)N(CCc1cnc[nH]1)Cc1ccccn1 (stereo not shown) [Compound I-6] | ≥ 1000 | 0.01 to 100 | < 5 | > 10 | 10 to 30
8 | Cn1c(CN(CCc2c[nH]cn2)[C@H]2CCCc3cccnc32)nc2cc(F)ccc21 [Compound I-45] | ≥ 1000 | 0.01 to 100 | < 5 | > 10 | 0.1 to 10
9 | NC(=O)CCN(Cc1ncccc1Cl)[C@H]1CCCc2cccnc21 [Compound I-24] | ≥ 1000 | 0.01 to 100 | > 10 | > 10 | 0.1 to 10
10 | Cc1cccnc1CN(CCC(N)=O)Cc1ncccc1C [Compound I-14, 3-(Bis((3-methylpyridin-2-yl)methyl)amino)propanamide] | ≥ 1000 | 100 to 1000 | > 10 | > 10 | 0.1 to 10
11 | Cc1cccnc1CN(CCc1c[nH]cn1)[C@H]1CCCc2cccnc21 [Compound I-26] | ≥ 1000 | 0.01 to 100 | < 5 | > 10 | 10 to 30
12 | Cn1c(CN(CCc2c[nH]cn2)[C@H]2CCCc3cccnc32)nc2cccc(F)c21 [Compound I-44] | 0.01 to 100 | 0.01 to 100 | 5 to 10 | > 10 | 0.1 to 10
13 | CC(c1ccccn1)N(CCC(N)=O)Cc1nc2ccccc2[nH]1 (stereo not shown) [Compound I-12, 3-(((1H-benzo[d]imidazol-2-yl)methyl)(1-(pyridin-2-yl)ethyl)amino)propanamide] | ≥ 1000 | 100 to 1000 | < 5 | > 10 | > 30
14 | Cc1cccnc1CN(CCc1ccccn1)C(C)c1ccccn1 (stereo not shown) [Compound I-3] | 100 to 1000 | 0.01 to 100 | > 10 | > 10 | 0.1 to 10
15 | c1ccc2c(CN(CCc3c[nH]cn3)Cc3nccs3)nccc2c1 [Compound I-54] | ≥ 1000 | 100 to 1000 | 5 to 10 | > 10 | 0.1 to 10
16 | Cc1cccnc1CN(CCC(N)=O)Cc1ncccc1Cl [Compound I-15] | ≥ 1000 | 100 to 1000 | > 10 | > 10 | 0.1 to 10
17 | Cc1cccnc1CN(CCc1ccccn1)Cc1ncccc1C [Compound I-4] | 100 to 1000 | 0.01 to 100 | > 10 | > 10 | 0.1 to 10
18 | Cc1cccnc1CN(CCC(N)=O)C(C)c1ccccn1 (stereo not shown) [Compound I-13] | ≥ 1000 | 0.01 to 100 | > 10 | > 10 | 0.1 to 10
19 | COc1ccc(CCN(Cc2ncccc2C)Cc2ncccc2C)nc1 [Compound I-32] | ≥ 1000 | 0.01 to 100 | > 10 | > 10 | 0.1 to 10
20 | OCCN(Cc1nc2ccccc2[nH]1)[C@H]1CCCc2cccnc21 [Compound I-55] | ≥ 1000 | 100 to 1000 | > 10 | > 10 | 0.1 to 10
